# Test results published in US20260327191A1, “GSK3a INHIBITORS AND METHODS OF USE THEREOF” (Blueprint Medicines Corporation, priority 2023, published 2026).
# pIC50: −log10 of the molar value.
# What was measured:
# human GSK3α = biological target: T1, human GSK3α (Homo sapiens, UniProt P49840); test: In vitro enzymatic activity assay, GSK3α; type: biochemical; conditions: 1.0 mM ATP, 1.0 μM peptide substrate, 120 min, 25° C, read-out: Enzyme GSK3α (IC50)
# T1 construct: Full length human GSK3α or GSK3B expressed as N-terminal GST fusion proteins; GST (N); purchased Carna Biosciences (Japan); host or cells: baculovirus host
# GSK3A = biological target: T2, GSK3A (Homo sapiens, UniProt P49840); test: NanoBRET cellular target engagement assay, Nanoluc-GSK3A in HEK293 cells; type: cell-based; conditions: NanoBRET GSK3α IC50, HEK293 cells, tracer K-8, 2 hours, 37° C
# T2 construct: expressed in transfected cells
# GSK3B [1] = biological target: T3, GSK3B (Homo sapiens, UniProt P49841); test: NanoBRET cellular target engagement assay, Nanoluc-GSK3B in HEK293 cells; type: cell-based; parameters: expressed in transfected cells; conditions: NanoBRET GSK3β IC50, HEK293 cells, tracer K-8, 2 hours, 37° C
# GSK3B [2] = biological target: T3, GSK3B; test: In vitro enzymatic activity assay, GSK3β; type: biochemical; parameters: Full length human GSK3α or GSK3B expressed as N-terminal GST fusion proteins; GST (N); purchased Carna Biosciences (Japan); host or cells: baculovirus host; conditions: 1.0 mM ATP, 1.0 μM peptide substrate, 120 min, 25° C, read-out: Enzyme GSK3β (IC50)
# T3 sequence (P49841 whole entry, the tested form may be a part): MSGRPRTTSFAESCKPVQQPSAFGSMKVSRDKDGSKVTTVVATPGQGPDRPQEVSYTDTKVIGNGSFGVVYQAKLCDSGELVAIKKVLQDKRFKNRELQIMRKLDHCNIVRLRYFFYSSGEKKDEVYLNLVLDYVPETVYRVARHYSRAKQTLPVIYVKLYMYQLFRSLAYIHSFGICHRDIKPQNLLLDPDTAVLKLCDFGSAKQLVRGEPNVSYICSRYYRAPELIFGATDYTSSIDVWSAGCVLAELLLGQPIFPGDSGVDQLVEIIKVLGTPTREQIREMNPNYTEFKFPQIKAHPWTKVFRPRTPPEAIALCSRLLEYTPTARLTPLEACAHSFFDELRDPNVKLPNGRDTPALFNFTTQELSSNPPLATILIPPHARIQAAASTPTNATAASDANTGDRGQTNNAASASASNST
# T2 sequence (P49840 whole entry): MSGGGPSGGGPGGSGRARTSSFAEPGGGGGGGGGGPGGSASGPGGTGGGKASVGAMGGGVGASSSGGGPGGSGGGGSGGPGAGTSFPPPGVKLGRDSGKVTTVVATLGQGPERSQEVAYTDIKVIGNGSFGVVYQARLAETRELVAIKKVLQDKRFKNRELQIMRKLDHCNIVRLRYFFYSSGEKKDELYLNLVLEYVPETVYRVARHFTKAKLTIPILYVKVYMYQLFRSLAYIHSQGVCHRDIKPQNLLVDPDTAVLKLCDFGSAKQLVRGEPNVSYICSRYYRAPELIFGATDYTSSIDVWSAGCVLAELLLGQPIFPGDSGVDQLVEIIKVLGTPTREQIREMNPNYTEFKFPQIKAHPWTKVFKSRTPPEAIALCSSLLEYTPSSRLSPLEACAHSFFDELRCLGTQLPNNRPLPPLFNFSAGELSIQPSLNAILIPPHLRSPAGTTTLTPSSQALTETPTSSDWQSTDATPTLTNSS
# T1 sequence (P49840 whole entry, the tested form may be a part): as the sequence (P49840 whole entry) above
pIC50 (human GSK3α),pIC50 (GSK3A),pIC50 (GSK3B [1]),pIC50 (GSK3B [2]),SMILES
8.09,8.41,6.53,6.46,"COCc1cc(C)c(-n2cnc(N)c(C(=O)Nc3cncc(C4CCCCCN4)c3)c2=O)c(C)c1 (single isomer, unassigned) [Example 100, (R)-4-amino-N-(5-(azepan-2-yl)pyridin-3-yl)-1-(4-(methoxymethyl)-2,6-dimethylphenyl)-6-oxo-1,6-dihydropyrimidine-5-carboxamide or (S)-4-amino-N-(5-(azepan-2-yl)pyridin-3-yl)-1-(4-(methoxymethyl)-2,6-dimethylphenyl)-6-oxo-1,6-dihydropyrimidine-5-carboxamide]"
7.71,8.11,6.10,6.03,"COCc1cc(C)c(-n2cnc(N)c(C(=O)Nc3cncc(C4CCC(C)N4)c3)c2=O)c(C)c1 (single isomer, unassigned) [Example 101]"
7.78,8.30,6.23,6.17,"COCc1cc(C)c(-n2cnc(N)c(C(=O)Nc3cncc([C@H]4CCC[C@H](C)N4)c3)c2=O)c(C)c1 (single isomer, unassigned) [Example 102]"
7.88,8.18,6.27,6.24,"COCc1cc(C)c(-n2cnc(N)c(C(=O)Nc3cncc([C@H]4CC[C@H](C)N4)c3)c2=O)c(C)c1 (single isomer, unassigned) [Example 103]"
7.79,8.10,6.28,6.13,"CCOc1cc(C)c(-n2cnc(N)c(C(=O)Nc3cncc(C(C)N)c3)c2=O)c(C)c1 (single isomer, unassigned) [Example 104, (R)-4-amino-N-(5-(1-aminoethyl)pyridin-3-yl)-1-(4-ethoxy-2,6-dimethylphenyl)-6-oxo-1,6-dihydropyrimidine-5-carboxamide or (S)-4-amino-N-(5-(1-aminoethyl)pyridin-3-yl)-1-(4-ethoxy-2,6-dimethylphenyl)-6-oxo-1,6-dihydropyrimidine-5-carboxamide]"
8.00,8.41,6.36,6.17,"Cc1cc(C(F)F)cc(C)c1-n1cnc(N)c(C(=O)Nc2cncc(C3CCCC(C)N3)c2)c1=O (single isomer, unassigned) [Example 107]"
7.61,8.06,6.16,6.00,"Cc1cc(C(F)F)cc(C)c1-n1cnc(N)c(C(=O)Nc2cncc([C@H]3CCC[C@H](C)N3)c2)c1=O (single isomer, unassigned) [Example 108]"
7.98,8.29,6.46,6.31,"Cc1cc(C(F)CF)cc(C)c1-n1cnc(N)c(C(=O)Nc2cncc(C3CCCCCN3)c2)c1=O (single isomer, unassigned) [Example 112]"
8.52,8.77,6.97,6.88,"Cc1cc(C(F)CF)cc(C)c1-n1cnc(N)c(C(=O)Nc2cncc([C@H]3CCCCN3)c2)c1=O (single isomer, unassigned) [Example 113, 4-amino-1-(4-((R)-1,2-difluoroethyl)-2,6-dimethylphenyl)-6-oxo-N-(5-((R)-piperidin-2-yl)pyridin-3-yl)-1,6-dihydropyrimidine-5-carboxamide or 4-amino-1-(4-((S)-1,2-difluoroethyl)-2,6-dimethylphenyl)-6-oxo-N-(5-((R)-piperidin-2-yl)pyridin-3-yl)-1,6-dihydropyrimidine-5-carboxamide]"
7.92,8.36,6.60,6.30,"Cc1cc(C(F)CF)cc(C)c1-n1cnc(N)c(C(=O)Nc2cncc(C(C)N)c2)c1=O (single isomer, unassigned) [Example 114]"
8.12,8.33,6.55,6.44,"Cc1cc(C(F)CF)cc(C)c1-n1cnc(N)c(C(=O)Nc2cncc(C3CCCCCN3)c2)c1=O (single isomer, unassigned) [Example 115]"
8.54,8.74,6.99,6.90,"CNCc1cncc(NC(=O)c2c(N)ncn(-c3c(Cl)cc(C(F)CF)cc3Cl)c2=O)c1 (single isomer, unassigned) [Example 116, (R)-4-amino-1-(2,6-dichloro-4-(1,2-difluoroethyl)phenyl)-N-(5-((methylamino)methyl)pyridin-3-yl)-6-oxo-1,6-dihydropyrimidine-5-carboxamide or (S)-4-amino-1-(2,6-dichloro-4-(1,2-difluoroethyl)phenyl)-N-(5-((methylamino)methyl)pyridin-3-yl)-6-oxo-1,6-dihydropyrimidine-5-carboxamide]"
8.66,8.85,7.09,6.98,"CNCc1cncc(NC(=O)c2c(N)ncn(-c3c(Cl)cc(C(F)CF)cc3Cl)c2=O)c1 (single isomer, unassigned) [Example 117, (R)-4-amino-1-(2,6-dichloro-4-(1,2-difluoroethyl)phenyl)-N-(5-((methylamino)methyl)pyridin-3-yl)-6-oxo-1,6-dihydropyrimidine-5-carboxamide or (S)-4-amino-1-(2,6-dichloro-4-(1,2-difluoroethyl)phenyl)-N-(5-((methylamino)methyl)pyridin-3-yl)-6-oxo-1,6-dihydropyrimidine-5-carboxamide]"
8.42,8.47,6.40,6.51,"CNC(COC)c1cncc(NC(=O)c2c(N)ncn(-c3c(Cl)cc(C(F)(F)F)cc3Cl)c2=O)c1 (single isomer, unassigned) [Example 121, (R)-4-amino-1-(2,6-dichloro-4-(trifluoromethyl)phenyl)-N-(5-(2-methoxy-1-(methylamino)ethyl)pyridin-3-yl)-6-oxo-1,6-dihydropyrimidine-5-carboxamide or (S)-4-amino-1-(2,6-dichloro-4-(trifluoromethyl)phenyl)-N-(5-(2-methoxy-1-(methylamino)ethyl)pyridin-3-yl)-6-oxo-1,6-dihydropyrimidine-5-carboxamide]"
8.28,8.30,6.50,6.49,"CNC(COC)c1cncc(NC(=O)c2c(N)ncn(-c3c(Cl)cc(C(F)(F)F)cc3Cl)c2=O)c1 (single isomer, unassigned) [Example 122, (R)-4-amino-1-(2,6-dichloro-4-(trifluoromethyl)phenyl)-N-(5-(2-methoxy-1-(methylamino)ethyl)pyridin-3-yl)-6-oxo-1,6-dihydropyrimidine-5-carboxamide or (S)-4-amino-1-(2,6-dichloro-4-(trifluoromethyl)phenyl)-N-(5-(2-methoxy-1-(methylamino)ethyl)pyridin-3-yl)-6-oxo-1,6-dihydropyrimidine-5-carboxamide]"
7.83,8.10,6.30,6.15,"CCCOc1cc(C)c(-n2cnc(N)c(C(=O)Nc3cncc(C(C)N)c3)c2=O)c(C)c1 (single isomer, unassigned) [Example 126, (R)-4-amino-N-(5-(1-aminoethyl)pyridin-3-yl)-1-(2,6-dimethyl-4-propoxyphenyl)-6-oxo-1,6-dihydropyrimidine-5-carboxamide or (S)-4-amino-N-(5-(1-aminoethyl)pyridin-3-yl)-1-(2,6-dimethyl-4-propoxyphenyl)-6-oxo-1,6-dihydropyrimidine-5-carboxamide]"
7.72,8.11,6.26,5.93,"CCC(N)c1cncc(NC(=O)c2c(N)ncn(-c3c(C)cc(C(F)F)cc3C)c2=O)c1 (single isomer, unassigned) [Example 128, (R)-4-amino-N-(5-(1-aminopropyl)pyridin-3-yl)-1-(4-(difluoromethyl)-2,6-dimethylphenyl)-6-oxo-1,6-dihydropyrimidine-5-carboxamide or (S)-4-amino-N-(5-(1-aminopropyl)pyridin-3-yl)-1-(4-(difluoromethyl)-2,6-dimethylphenyl)-6-oxo-1,6-dihydropyrimidine-5-carboxamide]"
8.68,8.92,7.09,6.98,"CCOCc1cc(Cl)c(-n2cnc(N)c(C(=O)Nc3cncc(C(N)CC)c3)c2=O)c(Cl)c1 (single isomer, unassigned) [Example 129, (R)-4-amino-N-(5-(1-aminopropyl)pyridin-3-yl)-1-(2,6-dichloro-4-(ethoxymethyl)phenyl)-6-oxo-1,6-dihydropyrimidine-5-carboxamide or (S)-4-amino-N-(5-(1-aminopropyl)pyridin-3-yl)-1-(2,6-dichloro-4-(ethoxymethyl)phenyl)-6-oxo-1,6-dihydropyrimidine-5-carboxamide]"
7.87,8.28,6.34,6.23,"CCOCc1cc(C)c(-n2cnc(N)c(C(=O)Nc3cncc(C(C)N)c3)c2=O)c(C)c1 (single isomer, unassigned) [Example 130, (R)-4-amino-N-(5-(1-aminoethyl)pyridin-3-yl)-1-(4-(ethoxymethyl)-2,6-dimethylphenyl)-6-oxo-1,6-dihydropyrimidine-5-carboxamide or (S)-4-amino-N-(5-(1-aminoethyl)pyridin-3-yl)-1-(4-(ethoxymethyl)-2,6-dimethylphenyl)-6-oxo-1,6-dihydropyrimidine-5-carboxamide]"
